What was measured:
[1] = test system: KRas G12D-mediated phosphorylation of ERK; experiment: Inhibition of KRas G12D-mediated phosphorylation of ERK in AGS cells; type: cell-based; settings: Homo sapiens; AGS cells expressing G12D, 3 hours, phospho-ERK normalized to GAPDH
Method in brief: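 In-cell Western: p-ERK Thr202/Tyr204 signal over GAPDH, as % of DMSO control, with IC50 from a 4-parameter curve. AGS cells seeded 40,000/well for 12-14 h, exposed to compound 3 h at 0.5% DMSO final, then formaldehyde-fixed and methanol-permeabilized.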

KRas G12D [2] = biological target: T1, KRas G12D (Homo sapiens (Human), UniProt P01116, G12D); experiment: KRas G12D Surface Plasmon Resonance (SPR) Binding Assay; settings: Biacore T200, immobilized biotinylated KRAS protein, 1:1 binding model
Procedure: Briefly, 1 L of 1.05× HBS-Mg buffer (262.5 mM Bioultra Hepes, pH 7.5, 157.5 mM NaCl, 105 mM MgCl2, 0.525 mM TCEP, 0.0305% Brij-35) was prepared and filter sterilized using a 0.22 μm bottle top filter. Approximately 50 mL of 1.05× HBS-Mg buffer was removed and saved for future dilutions. A 50 mL aliquot of DMSO (Sigma Aldrich DMSO Lot. #SHBK2079) was added and continued to stir for 10 minutes, creating the final 1.0× HBS-Mg buffer (250 mM Bioultra Hepes pH 7.5, 150 mM NaCl, 100 mM MgCl2, 0.5mM TCEP, 0.03% Brij-35).
Biacore T200 instrument was primed using 1.0× HBS-Mg buffer before docking a GE Streptavidin (SA) chip and then primed two additional times prior to beginning the immobilization step. All immobilized protein mixtures were created using 3-5mg/mL Biotinylated Avidin-tagged KRAS protein using the following immobilization settings: SA chip type, 1 flow cells per cycle, 720 second contact time, and 5 ul/min flow rate. Normalization of the detector was also performed during the immobilization step using the GE Biallormalize solution.
All compounds were diluted to 10 mM in 100% DMSO prior to being diluted 20× in 1.05× buffer. […] Data evaluation was performed using the Biacore T200 Evaluation software and data fit to 1:1 binding model.
Target sequence in this assay (P01116-2 other isoform, or with tags, fused parts or gaps G12D): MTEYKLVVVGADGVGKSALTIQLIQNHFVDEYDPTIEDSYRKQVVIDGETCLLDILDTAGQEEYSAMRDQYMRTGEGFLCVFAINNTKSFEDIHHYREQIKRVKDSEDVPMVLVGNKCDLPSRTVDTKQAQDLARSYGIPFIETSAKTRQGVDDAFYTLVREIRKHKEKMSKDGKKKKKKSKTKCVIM

KRas G12D [3] = biological target: T1, KRas G12D; experiment: KRas G12D Binding Assay (TR-FRET displacement); settings: TR-FRET displacement of Cy5 labelled tracer, GDP-loaded KRAS G12D, 60 minute incubation at 22° C.
Procedure: After a 60 minute incubation at 22° C., the reaction was measured using a PerkinElmer EnVision multimode plate reader via TR-FRET dual wavelength detection, and the percent of control (POC) calculated using a ratiometric emission factor. […] The POC values were fit to a 4-parameter logistic curve and the IC50 value was determined as the concentration where the curve crosses 50 POC.
Target sequence in this assay (P01116 other isoform, or with tags, fused parts or gaps G12D): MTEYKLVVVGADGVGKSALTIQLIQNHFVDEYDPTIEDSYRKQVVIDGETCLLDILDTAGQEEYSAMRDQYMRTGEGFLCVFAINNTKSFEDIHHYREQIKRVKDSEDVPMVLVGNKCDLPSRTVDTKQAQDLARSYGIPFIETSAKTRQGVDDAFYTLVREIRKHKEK

`Fc1c(-c2cncc3cccc(Cl)c23)ncc2c(N3C[C@H]4CC[C@@H](C3)N4)nc(OCC34CCCN3CCC4)nc12` [Example 33, 4-((1R,5S)-3,8-diazabicyclo[3.2.1]octan-3-yl)-7-(5-chloroisoquinolin-4-yl)-8-fluoro-2-((tetrahydro-1H-pyrrolizin-7a(5H)-yl)methoxy)pyrido[4,3-d]pyrimidine bis(2,2,2-trifluoroacetate)] was tested, and the IC50 [1] was 2.05 µM, the Kd (KRas G12D [2]) was 0.0717 µM and the IC50 (KRas G12D [3]) was 0.0211 µM.

`O[C@@H]1C[C@@H]2CN(c3nc(OCC45CCCN4CCC5)nc4c(F)c(-c5cccc6cccc(Cl)c56)ncc34)C[C@H]1N2` [Example 49, (1R,5R,6R)-3-(7-(8-chloronaphthalen-1-yl)-8-fluoro-2-((tetrahydro-1H-pyrrolizin-7a(5H)-yl)methoxy)pyrido[4,3-d]pyrimidin-4-yl)-3,8-diazabicyclo[3.2.1]octan-6-ol] was tested, and the IC50 [1] was 2.12 µM, the Kd (KRas G12D [2]) was 0.0004 µM and the IC50 (KRas G12D [3]) was 0.0059 µM.

Work on `COC(=O)C12CCC(CN(c3nc(OC[C@@H]4CCCN4C)nc4c(F)c(-c5cc(O)cc6ccccc56)ncc34)C1)N2` (stereo partly drawn) [Example 158, methyl 3-(8-fluoro-7-(3-hydroxynaphthalen-1-yl)-2-(((S)-1-methylpyrrolidin-2-yl)methoxy)pyrido[4,3-d]pyrimidin-4-yl)-3,8-diazabicyclo[3.2.1]octane-1-carboxylate bis(2,2,2-trifluoroacetate)] yielded an IC50 [1] of 4.22 µM, a Kd (KRas G12D [2]) of 0.33 µM and an IC50 (KRas G12D [3]) of 0.0737 µM.

For `CC(C)N1CCC[C@H]1COc1nc(N2C[C@H]3C[C@@H](O)[C@@H](C2)N3)c2cnc(-c3cccc4cccc(Cl)c34)c(F)c2n1` [Example 153, (1R,5R,6R)-3-(7-(8-chloronaphthalen-1-yl)-8-fluoro-2-(((S)-1-isopropylpyrrolidin-2-yl)methoxy)pyrido[4,3-d]pyrimidin-4-yl)-3,8-diazabicyclo[3.2.1]octan-6-ol], the IC50 [1] was 2.37 µM, the Kd (KRas G12D [2]) was 0.0705 µM and the IC50 (KRas G12D [3]) was 0.0508 µM.

For `Cn1c(CCOc2nc(N3C[C@H]4CC[C@@H](C3)N4)c3cnc(-c4cc(O)cc5ccccc45)c(F)c3n2)nc2ccccc21` [Example 30, 4-(4-((1R,5S)-3,8-diazabicyclo[3.2.1]octan-3-yl)-8-fluoro-2-(2-(1-methyl-1H-benzo[d]imidazol-2-yl)ethoxy)pyrido[4,3-d]pyrimidin-7-yl)naphthalen-2-ol], the IC50 [1] was 9.6 µM, the Kd (KRas G12D [2]) was 0.18 µM and the IC50 (KRas G12D [3]) was 0.418 µM.

Compound `Oc1cc(-c2ncc3c(N4C[C@H]5CC[C@@H](C4)N5)nc(OCCCN4C[C@@H]5C[C@H]4CO5)nc3c2F)c2ccccc2c1` [Example 24, 4-(2-(3-((1S,4S)-2-oxa-5-azabicyclo[2.2.1]heptan-5-yl)propoxy)-4-((1R,5S)-3,8-diazabicyclo[3.2.1]octan-3-yl)-8-fluoropyrido[4,3-d]pyrimidin-7-yl)naphthalen-2-ol] has an IC50 [1] of 2.89 µM, a Kd (KRas G12D [2]) of 0.005 µM and an IC50 (KRas G12D [3]) of 0.0079 µM.

Work on `CN1CCC[C@H]1COc1nc(N2C[C@H]3CC[C@@H](C2)N3)c2cnc(-c3cccc4cccc(CCC#N)c34)c(F)c2n1` [Example 117, 3-(8-(4-((1R,5S)-3,8-diazabicyclo[3.2.1]octan-3-yl)-8-fluoro-2-(((S)-1-methylpyrrolidin-2-yl)methoxy)pyrido[4,3-d]pyrimidin-7-yl)naphthalen-1-yl)propanenitrile bis(2,2,2-trifluoroacetate)] yielded a Kd (KRas G12D [2]) of 1 µM and an IC50 (KRas G12D [3]) of 0.731 µM.

With `[O-][N+]12CCCC1(COc1nc(N3CC4CCC(C3)N4)c3cnc(-c4cccc5cccc(Cl)c45)c(F)c3n1)CCC2` [Example 60, 7a-(((4-((1R,5S)-3,8-diazabicyclo[3.2.1]octan-3-yl)-7-(8-chloronaphthalen-1-yl)-8-fluoropyrido[4,3-d]pyrimidin-2-yl)oxy)methyl)hexahydropyrrolizine 4(1H)-oxide] the IC50 [1] was > 16.7 µM, the Kd (KRas G12D [2]) was > 1000 µM and the IC50 (KRas G12D [3]) was 1.66 µM.
